Data set [1] concerns the target T1, human dopamine-β-hydroxylase (Homo sapiens, UniProt P09172).
T1 construct: SK-N-SH cells (ATCC HTB-11), a human neuroblastoma derived cell line, were used as a source of human dopamine-β-hydroxylase; host or cells: SK-N-SH human neuroblastoma cells
T1 sequence (P09172 1-617): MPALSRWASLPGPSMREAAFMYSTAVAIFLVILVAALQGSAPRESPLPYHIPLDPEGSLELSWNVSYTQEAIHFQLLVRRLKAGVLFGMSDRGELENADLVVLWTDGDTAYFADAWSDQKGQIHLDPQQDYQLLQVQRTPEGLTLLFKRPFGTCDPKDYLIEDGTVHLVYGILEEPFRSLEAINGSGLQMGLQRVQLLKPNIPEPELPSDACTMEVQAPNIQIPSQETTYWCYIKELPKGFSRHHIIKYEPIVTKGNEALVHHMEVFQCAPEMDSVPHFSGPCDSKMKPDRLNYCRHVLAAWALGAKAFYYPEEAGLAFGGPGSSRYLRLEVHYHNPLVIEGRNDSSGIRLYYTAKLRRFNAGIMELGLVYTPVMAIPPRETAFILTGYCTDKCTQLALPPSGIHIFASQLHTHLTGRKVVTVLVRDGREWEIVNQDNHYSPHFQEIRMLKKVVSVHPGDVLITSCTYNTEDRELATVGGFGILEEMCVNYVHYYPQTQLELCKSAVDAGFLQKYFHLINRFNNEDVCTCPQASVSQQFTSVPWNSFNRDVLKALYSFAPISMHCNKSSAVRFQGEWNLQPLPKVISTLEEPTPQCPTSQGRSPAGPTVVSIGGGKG
Briefly: Human DβH in vitro assay: β-hydroxylation of dopamine to noradrenaline, SK-N-SH cells as enzyme source. In kind it is biochemical. The conditions noted are these: for In vitro DβH inhibition / IC50: SK-N-SH cells as source of human DβH, 50 mM dopamine, test compounds 0.3 to 10,000 nM; for IC50: read-out: In vitro DβH inhibition (IC50 μM); for % control Mean ± SEM: human DβH in vitro assay. Also noted: key to In vitro DβH inhibition: + = inhibitory activity. The method, then:
Dopamine-β-hydroxylase activity was evaluated by the ability to β-hydroxylate dopamine to noradrenaline as previously described (Kojima, K., Parvez, S. and Nagatsu T. 1993. Analysis of enzymes in catecholamine biosynthesis. In Methods in Neurotransmitter and Neuropeptide Research, pp. 349-380: Elsevier Science Publishers). SK-N-SH cells (ATCC HTB-11), a human neuroblastoma derived cell line, were used as a source of human dopamine-β-hydroxylase. SK-N-SH cells cultured in 24 well plates were preincubated for 20 min in a reaction medium containing 200 mM sodium acetate, 30 mM N-ethylmaleimide, 5 μM copper sulphate, 0.5 mg/ml catalase aqueous solution, 1 mM pargyline, 10 mM sodium fumarate and 20 mM ascorbic acid. Thereafter, cells were incubated for further 45 min in the reaction medium with added increasing concentrations of dopamine (0.5 to 100 mM). During preincubation and incubation, the cells were continuously shaken and maintained at 37° C. The reaction was terminated by the addition of 0.2 M perchloric acid. The acidified samples were stored at 4° C. before injection into the high pressure liquid chromatograph for the assay of noradrenaline. In experiments conducted with the aim of studying the effects of new dopamine-β-hydroxylase inhibitors on enzyme activity, test compounds (0.3 to 10,000 nM) of interest were added to the preincubation and incubation solutions; the incubation was performed in the presence of a concentration (50 mM) of dopamine 2.5 times the corresponding Km value as determined in saturation experiments.

The conditions of data set [2]: literature finding; central as well as peripheral effects; cited from earlier work.

SMILES strings stand for the structures. Where a name gives a salt, the structure may show the parent alone.

As a reminder, the IC50 is the concentration at which inhibition is half-maximal.

For `CC(=O)NCCc1c[nH]c(=S)n1[C@H]1COc2c(F)cc(F)cc2C1` [compound II, (R)-N-(2-(3-(6,8-difluorochroman-3-yl)-2-thioxo-2,3-dihydro-1H-imidazol-4-yl)ethyl)acetamide], in data set [1], the “In vitro DβH inhibition” value is “+” and the IC50 was 0.5 µM.
As for `O=C(O)Cc1c[nH]c(=S)n1[C@H]1COc2c(F)cc(F)cc2C1` [compound III, (R)-2-(3-(6,8-difluorochroman-3-yl)-2-thioxo-2,3-dihydro-1H-imidazol-4-yl)acetic acid], in data set [1], the “In vitro DβH inhibition” value is “+” and the IC50 was 0.6 µM.
On the same counts, the results for `NCCc1c[nH]c(=S)n1[C@H]1COc2c(F)cc(F)cc2C1` [Compound I, (R)-5-(2-aminoethyl)-1-(6,8-difluorochroman-3-yl)-1,3-dihydroimidazole-2-thione, reference compound] are “+” and 0.2 µM.
For `NC(=O)Cc1c[nH]c(=S)n1[C@H]1COc2c(F)cc(F)cc2C1` [compound IV, (R)-2-(3-(6,8-difluorochroman-3-yl)-2-thioxo-2,3-dihydro-1H-imidazol-4-yl)acetamide] the same measures were “+” and 1.8 µM.
On to `NCc1c[nH]c(=S)n1[C@H]1CCc2c(F)cc(F)cc2C1` [Nepicastat, reference compound], for which, in data set [2], the “crossing of the blood brain barrier (BBB)” value is “cross the blood brain barrier”. Further, the “% control Mean ± SEM” value in data set [1] (compound at 5 μM) came to 0.4 ± 0.2 % control.
Turning to `ONCCc1c[nH]c(=S)n1[C@H]1COc2c(F)cc(F)cc2C1` [compound V, (R)-1-(6,8-difluorochroman-3-yl)-5-(2-(hydroxyamino)ethyl)-1H-imidazole-2(3H)-thione hydrochloride], in data set [1], the “In vitro DβH inhibition” value is reported as “+” and the IC50 stood at 0.5 µM.
Regarding `NCCc1c[nH]c(=S)n1[C@H]1COc2c(F)cc(F)cc2[C@@H]1O` [compound VI, 5-(2-Aminoethyl)-1-((3S ,4S)-6,8-difluoro-4-hydroxychroman-3-yl)-1H-imidazole-2(3H)-thione hydrochloride], the “In vitro DβH inhibition” value in data set [1] was “+”.
With `O=S(=O)([O-])NCCc1c[nH]c(=S)n1[C@H]1COc2c(F)cc(F)cc2C1.[Na+]` [compound VIII, Sodium (R)-2-(3-(6,8-difluorochroman-3-yl)-2-thioxo-2,3-dihydro-1H-imidazol-4-yl)ethylsulfamate], the “In vitro DβH inhibition” value in data set [1] is listed as “+”. Besides, the “% control Mean ± SEM” value was 32.1 ± 1.1 % control in data set [1] (compound at 0.5 μM), 20.3 ± 0.7 % control in data set [1] (compound at 1 μM) and 3.5 ± 1.1 % control in data set [1] (compound at 5 μM).

(Values after patent US20100093817A1, “Compounds” (BIAL - PORTELA & CA S.A., priority 2007, published 2010).)
